Values quoted from earlier work as cited in patent US20070021352A1, “PREVENTION AND TREATMENT OF HEARING DISORDERS” (Cypress Bioscience, Inc., priority 2005, published 2007).

Key:
[1] = humans; daily ingestion of 122 mg for 10 days
[2] = elderly patients; preliminary results
cochlea = details: guinea pig model; local administration
[3] = normal, healthy volunteers; daily ingestion of 6.7 mmol; rifle noise six days per week for eight weeks; vs placebo (sodium aspartate)

Compound: [Mg] [magnesium]
- noise-induced temporary threshold shift [1]: protect against noise-induced temporary threshold shift

Compound: CN(C)CCCC1(c2ccc(F)cc2)OCc2cc(C#N)ccc21 (stereo not shown) [citalopram, 1-[3-(dimethylamino)propyl]-1-(4-fluorophenyl)-1,3-dihydro-5-isobenzofurancarbonitrile]
- impact on auditory processes [2]: positive impact on auditory processes in the elderly

Compound: CCN(CC)CCn1c(=O)c(Cc2ccc(OC)cc2)nc2ccccc21 [caroverine, 1-[2-(diethylamino)ethyl]-3-[(4-methoxyphenyl)methyl]-2-(1H)-quinoxalinone]
- protection of cochlea from noise trauma (cochlea): protection of cochlea from noise trauma

Compound: N[C@@H](CC(=O)[O-])C(=O)[O-].[Mg+2] [magnesium aspartate]
- permanent threshold shift [3]: significant effect on permanent threshold shift
